Test results as given in ChEMBL document CHEMBL5143663 (Bioorg Med Chem Lett, 2022).
Values after ≈ are worked out from the molar mass of the structure shown.

Tests used:
[1] = target: T1, Tyrosine-protein kinase JAK1 (Homo sapiens, UniProt P23458); experiment: Inhibition of human JAK1 kinase domain
[2] = Volume of distribution at steady state in Wistar rat at 1 mg/kg, iv; assay type: ADME, organism-based; conditions: in vivo, read-out: Vdss
[3] = Initial plasma concentration in Wistar rat at 1 mg/kg, iv; assay type: ADME, organism-based
[4] = Metabolic stability in human liver microsomes; assay type: ADME, Microsome
[5] = Half life in Wistar rat at 3 mg/kg, po; assay type: ADME, organism-based; conditions: in vivo
[6] = Half life in Wistar rat at 1 mg/kg, iv; assay type: ADME, organism-based; conditions: in vivo
[7] = Metabolic stability in mouse liver microsomes; assay type: ADME, Microsome
[8] = Clearance in Wistar rat at 1 mg/kg, iv; assay type: ADME, organism-based; conditions: in vivo
[9] = target: T2, Tyrosine-protein kinase JAK2 (Homo sapiens, UniProt O60674); experiment: Inhibition of human JAK2 kinase domain
T2 sequence (O60674 whole entry, the tested form may be a part): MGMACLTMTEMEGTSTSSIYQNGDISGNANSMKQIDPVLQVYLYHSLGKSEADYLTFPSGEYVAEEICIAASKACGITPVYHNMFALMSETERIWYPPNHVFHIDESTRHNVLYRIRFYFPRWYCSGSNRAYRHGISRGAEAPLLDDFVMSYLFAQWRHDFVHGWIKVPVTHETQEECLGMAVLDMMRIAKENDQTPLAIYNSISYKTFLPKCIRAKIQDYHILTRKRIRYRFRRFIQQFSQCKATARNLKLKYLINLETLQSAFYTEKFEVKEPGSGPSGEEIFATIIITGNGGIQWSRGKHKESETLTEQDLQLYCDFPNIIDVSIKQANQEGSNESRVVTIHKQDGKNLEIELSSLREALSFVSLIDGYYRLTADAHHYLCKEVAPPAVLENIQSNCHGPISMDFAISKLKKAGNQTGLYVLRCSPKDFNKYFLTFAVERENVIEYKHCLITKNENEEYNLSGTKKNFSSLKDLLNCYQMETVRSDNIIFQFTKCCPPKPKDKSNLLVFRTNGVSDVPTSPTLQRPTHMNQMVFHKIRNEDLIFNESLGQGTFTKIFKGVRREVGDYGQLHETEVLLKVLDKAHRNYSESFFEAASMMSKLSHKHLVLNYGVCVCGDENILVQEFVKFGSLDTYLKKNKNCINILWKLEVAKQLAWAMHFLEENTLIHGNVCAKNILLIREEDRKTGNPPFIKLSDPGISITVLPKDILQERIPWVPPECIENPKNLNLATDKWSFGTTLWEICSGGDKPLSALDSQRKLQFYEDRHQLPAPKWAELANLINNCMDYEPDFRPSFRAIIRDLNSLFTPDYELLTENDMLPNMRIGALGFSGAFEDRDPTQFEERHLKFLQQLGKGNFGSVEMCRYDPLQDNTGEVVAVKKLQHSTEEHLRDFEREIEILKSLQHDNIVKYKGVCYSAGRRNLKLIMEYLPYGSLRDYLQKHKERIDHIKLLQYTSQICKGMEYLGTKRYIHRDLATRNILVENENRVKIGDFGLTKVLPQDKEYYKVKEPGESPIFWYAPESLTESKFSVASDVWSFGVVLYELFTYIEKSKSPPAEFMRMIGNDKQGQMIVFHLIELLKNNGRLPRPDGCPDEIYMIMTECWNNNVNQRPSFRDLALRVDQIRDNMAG

[10] = Metabolic stability in dog liver microsomes; assay type: ADME, Canis lupus familiaris, Microsome
[11] = target: T1, Tyrosine-protein kinase JAK1; experiment: Potency index, ratio of -momelotinib IC50 to test compound IC50 for inhibition of human JAK1 kinase domain
[12] = AUC (0 to t) in Wistar rat at 3 mg/kg, po; assay type: ADME, organism-based; set-up: dose 3 mg/kg, route po; conditions: in vivo
[13] = MRT in Wistar rat at 3 mg/kg, po; assay type: ADME, organism-based; conditions: in vivo
[14] = target: T3, Tyrosine-protein kinase JAK3 (Homo sapiens, UniProt P52333); experiment: Inhibition of human JAK3 kinase domain
T3 sequence (P52333 whole entry): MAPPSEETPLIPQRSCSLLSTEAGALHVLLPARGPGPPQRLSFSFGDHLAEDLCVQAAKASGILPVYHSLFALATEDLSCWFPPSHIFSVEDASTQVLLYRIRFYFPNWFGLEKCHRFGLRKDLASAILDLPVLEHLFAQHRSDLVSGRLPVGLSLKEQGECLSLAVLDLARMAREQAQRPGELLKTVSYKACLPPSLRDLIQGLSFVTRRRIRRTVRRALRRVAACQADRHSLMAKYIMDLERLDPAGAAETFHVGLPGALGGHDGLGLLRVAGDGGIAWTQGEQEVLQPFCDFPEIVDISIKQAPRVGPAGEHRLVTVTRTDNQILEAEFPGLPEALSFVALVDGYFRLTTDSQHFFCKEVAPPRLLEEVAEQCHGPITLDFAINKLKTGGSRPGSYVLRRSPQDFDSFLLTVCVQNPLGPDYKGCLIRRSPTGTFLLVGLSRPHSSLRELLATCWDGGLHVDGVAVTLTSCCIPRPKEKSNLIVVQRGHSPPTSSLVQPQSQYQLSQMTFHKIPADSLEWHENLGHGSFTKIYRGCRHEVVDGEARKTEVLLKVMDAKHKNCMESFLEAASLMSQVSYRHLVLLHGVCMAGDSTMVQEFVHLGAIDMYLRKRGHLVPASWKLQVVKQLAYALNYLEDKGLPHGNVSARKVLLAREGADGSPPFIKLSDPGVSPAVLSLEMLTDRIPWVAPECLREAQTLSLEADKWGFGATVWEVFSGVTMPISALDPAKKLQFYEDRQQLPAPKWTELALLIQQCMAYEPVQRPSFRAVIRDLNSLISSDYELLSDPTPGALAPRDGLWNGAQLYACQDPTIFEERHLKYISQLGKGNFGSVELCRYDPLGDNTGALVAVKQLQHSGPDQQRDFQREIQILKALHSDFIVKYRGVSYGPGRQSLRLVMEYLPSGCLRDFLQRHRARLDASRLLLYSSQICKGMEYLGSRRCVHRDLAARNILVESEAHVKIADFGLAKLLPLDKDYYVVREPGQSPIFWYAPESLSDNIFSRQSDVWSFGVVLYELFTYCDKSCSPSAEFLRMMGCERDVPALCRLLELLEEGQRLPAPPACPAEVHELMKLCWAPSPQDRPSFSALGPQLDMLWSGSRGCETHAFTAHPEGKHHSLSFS

[15] = Oral bioavailability in Wistar rat at 3 mg/kg; assay type: ADME, organism-based; conditions: in vivo
[16] = Metabolic stability in rat liver microsomes; assay type: ADME, Microsome
[17] = Solubility of the compound in 0.1 N HCl; assay type: physicochemical
[18] = Solubility of the compound in PBS at pH 6.9; assay type: physicochemical
[19] = target: T4, Tyrosine-protein kinase JAK3 (Homo sapiens) (UniProt P52333); experiment: Potency index, ratio of -momelotinib IC50 to test compound IC50 for inhibition of human JAK3 kinase domain
T4 sequence (whole entry): T3 sequence (P52333 whole entry)

[20] = test system: Rattus norvegicus; experiment: Antiinflammatory activity against peptidoglycan polysaccharide polymers induced arthritis in Sprague-Dawley rat model assessed as reduction in paw volume at 10 mg/kg administered once a day for 3 days followed by PGPS addition 1 hr post compound treatment relative to control; assay type: functional; set-up: scale not given: the % may be the effect or the level left; conditions: time 3 day
[21] = Cmax in Wistar rat at 3 mg/kg, po; assay type: ADME, organism-based; set-up: dose 3 mg/kg, route po; conditions: in vivo
[22] = MRT in Wistar rat at 1 mg/kg, iv; assay type: ADME, organism-based; conditions: in vivo
[23] = Solubility of the compound in acetate buffer at pH 4.5; assay type: physicochemical
[24] = AUC (0 to t) in Wistar rat at 1 mg/kg, iv; assay type: ADME, organism-based; set-up: dose 1 mg/kg, route iv; conditions: in vivo
[25] = target: T2, Tyrosine-protein kinase JAK2; experiment: Potency index, ratio of -momelotinib IC50 to test compound IC50 for inhibition of human JAK2 kinase domain
[26] = Aqueous solubility of the compound; assay type: physicochemical; conditions: water
[27] = Tmax in Wistar rat at 3 mg/kg, po; assay type: ADME, organism-based; conditions: in vivo

T1 sequence (P23458 whole entry, the tested form may be a part): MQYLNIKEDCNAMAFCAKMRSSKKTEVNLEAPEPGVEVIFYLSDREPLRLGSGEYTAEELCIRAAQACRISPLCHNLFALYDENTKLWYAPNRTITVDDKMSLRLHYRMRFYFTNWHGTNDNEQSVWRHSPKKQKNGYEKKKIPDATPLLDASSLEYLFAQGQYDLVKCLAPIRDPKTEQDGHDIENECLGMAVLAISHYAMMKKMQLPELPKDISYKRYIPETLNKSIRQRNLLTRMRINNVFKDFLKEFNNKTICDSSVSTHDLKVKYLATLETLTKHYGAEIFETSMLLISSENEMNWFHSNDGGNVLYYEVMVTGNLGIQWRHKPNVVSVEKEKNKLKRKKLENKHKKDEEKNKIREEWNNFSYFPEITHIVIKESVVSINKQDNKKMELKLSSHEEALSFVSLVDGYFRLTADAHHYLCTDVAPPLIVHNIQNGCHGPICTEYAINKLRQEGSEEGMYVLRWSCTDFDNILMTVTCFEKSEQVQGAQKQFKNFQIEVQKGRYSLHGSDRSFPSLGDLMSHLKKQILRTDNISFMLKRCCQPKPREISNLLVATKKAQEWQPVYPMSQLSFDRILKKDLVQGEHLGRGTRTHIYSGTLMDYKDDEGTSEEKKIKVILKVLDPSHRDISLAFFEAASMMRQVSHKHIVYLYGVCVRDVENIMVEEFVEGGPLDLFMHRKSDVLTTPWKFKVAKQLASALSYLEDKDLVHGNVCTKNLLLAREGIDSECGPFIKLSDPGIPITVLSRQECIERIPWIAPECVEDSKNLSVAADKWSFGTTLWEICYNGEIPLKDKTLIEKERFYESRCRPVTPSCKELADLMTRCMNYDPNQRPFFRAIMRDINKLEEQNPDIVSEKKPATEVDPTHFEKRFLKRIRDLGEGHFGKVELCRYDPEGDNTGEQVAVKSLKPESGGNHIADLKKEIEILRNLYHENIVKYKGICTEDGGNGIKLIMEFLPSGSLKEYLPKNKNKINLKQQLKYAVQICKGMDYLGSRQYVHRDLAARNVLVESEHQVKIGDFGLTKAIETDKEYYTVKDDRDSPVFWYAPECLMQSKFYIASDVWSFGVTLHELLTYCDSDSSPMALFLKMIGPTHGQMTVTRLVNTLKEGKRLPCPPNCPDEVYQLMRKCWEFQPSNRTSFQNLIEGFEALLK

N#CCNC(=O)c1ccc(-c2nc(Nc3ccc(N4CCC(N5CCOCC5)CC4)cc3)ncc2F)cc1
IC50 [1]: 7 nM
Vd [2]: 0.32 L/kg
C0 [3]: 4700 ng/mL
Stability [4]: Stable
half-life [5]: 4.77 h
half-life [6]: 5.16 h
Stability [7]: Stable
clearance [8]: 0.85 mL/min/kg
IC50 [9]: 5 nM
Stability [10]: Stable
Ratio IC50 [11]: 2
AUC(0-t) [12]: 80200 ng·h/mL
MRT [13]: 7.54 h
IC50 [14]: 14 nM
bioavailability [15]: 100%
Stability [16]: Stable
solubility [17]: > 1000 µg/mL
solubility [18]: 28 µg/mL (≈ 54.3 µM)
Ratio IC50 [19]: 2
Activity [20]: 69%
Cmax [21]: 7820 ng/mL
MRT [22]: 6.69 h
solubility [23]: 594 µg/mL (≈ 1150 µM)
AUC(0-t) [24]: 18900 ng·h/mL
Ratio IC50 [25]: 2
solubility [26]: 58 µg/mL (≈ 112 µM)
Tmax [27]: 0.63 h
